Source: PubChem BioAssay AID449762 (Southern Research Specialized Biocontainment Screening …, 2010)
Records with an inconclusive call do not appear.

Tested on: M. tuberculosis H37Rv growth inhibition, 7H9 media
Assay: M. tuberculosis growth inhibition, HTS (AID 449762);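 further: bacterial growth assessed after seven days of incubation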
Conditions: for IC90: measured here: IC90 growth inhibition

SMILES | IC50 [µM] | IC90 [µM]
CCOC(=O)C(C)Sc1ncnc2c1nnn2-c1ccc(F)cc1 (stereo unspecified) | 1.19 | 7.38
CC1CC(C)CN(C(=O)C2CCC(CNc3c(N4CCCCC4)c(=O)c3=O)CC2)C1 (stereo unspecified) | 19.3 | 71.7
Oc1cc(NCc2cccnc2)ccc1-c1nc2ccccc2o1 | 12.6 | 44.4
CCn1cc(Br)c(C(=O)Nc2ccc(C(=O)OC(C)C)cc2)n1 | 35.5 | 57.8
Cc1cc(-c2c(C)[nH]n(-c3ccccc3)c2=O)n[nH]1 | 5.54 | 25.5
CN(CCCCCCCCCCN(C)C(=O)Oc1cccc([N+](C)(C)C)c1)C(=O)Oc1cccc([N+](C)(C)C)c1 | 1.49 | 4.04
Oc1ccc(CN2CCc3ccccc3C2)c2cccnc12 | 61.5 | > 100
O=C1NCC(c2ccccc2)C1C(=O)N/N=C\c1ccc(-c2ccc(Cl)c(Cl)c2)o1 (stereo unspecified) | 91 | > 100
CCOC(=O)CSc1nnc(SCCN2C(=O)c3ccccc3C2=O)s1 | 4.3 | 30
CC(CC(=O)Nc1ccc(Cl)c([N+](=O)[O-])c1)c1ccccc1 (stereo unspecified) | 16 | 40.7
CCOc1ccc(NC(=O)CSc2nc(O)c(C)c(=O)n2-c2ccc(F)cc2)cc1 | 8.48 | 20.3
O=C(CCSc1ccccn1)c1ccccc1 | 10.2 | 19.1
CCCCNC(=S)Nc1ccc2cn[nH]c2c1 | 11.2 | 21.3
CCSc1ccc2c(c1)N(CCCN1CCN(C)CC1)c1ccccc1S2 | 19.1 | 26.5
COc1ccc(C2CC(=O)C3=C(C2)NC(C)=C(C#N)C3c2ccc(N(C)C)cc2)cc1 (stereo unspecified) | 19.6 | 33
Cc1nn(-c2ccccc2)c(C)c1/C=N/NC(=O)c1cc(-c2cccc3ccccc23)n[nH]1 | 29 | > 100
O=C(Nc1ccc(N2CCN(C(=O)c3ccco3)CC2)cc1)C(c1ccccc1)c1ccccc1 | 12.1 | 22.6
Cc1cc2c(ccc3c2no[n+]3[O-])nn1 | 11.6 | 14.6
Cc1cc([N+](=O)[O-])c2ccccc2[n+]1[O-] | 5.76 | 9.62
CC(NC(=O)CCl)c1ccc(Cl)c(Cl)c1 (stereo unspecified) | 1.17 | 2.91
CCCCn1c(NCc2ccc3c(c2)OCO3)nc2ccccc21 | 19 | 31.1
CC1CCc2c(sc3ncnc(NCCCOC(C)C)c23)C1 (stereo unspecified) | 53.2 | 67.1
COc1ccc(OC)c(Nc2nc(-c3sc(C)nc3C)cs2)c1 | 51.7 | > 100

SMILES | IC50 [µM] | IC90 [µM]
CCOc1cccc(/C=C/c2ccc3cccc(O)c3n2)c1O | 1.38 | 18.5
CCCCOc1ccc(C(=O)Oc2ccc(C)nc2)cc1 | 13.8 | 72.3
Cc1cc(C)n2[nH]c(=O)c(N=Nc3cccc(C(F)(F)F)c3)c2n1 | 86.5 | > 100
CN(Cc1ccco1)c1ncnc2ccc(-c3ccc4c(ccn4C)c3)cc12 | 16.9 | 44.9
Cc1ccc(NC(=O)CSc2nc3ccccc3c(=O)n2CCCN2CCCCC2)cc1Cl | 39 | 55.5
CCOc1ccc(CN(C)CC(O)COC(c2ccc(OC)cc2)c2ccc(OC)cc2)cc1 (stereo unspecified) | 10.5 | 13.4
COc1ccc(Cc2nc3ccc(C(=O)NCCCSC)cc3o2)cc1OC | 41.1 | > 100
COC(=O)CN1C(c2ccc(Cl)cc2)=Nc2ccc(Cl)cc2C1c1ccccc1 (stereo unspecified) | 11.8 | 13.7
COc1cc(NC(=O)C/C(C)=N/NC(=O)c2ccccn2)c(OC)cc1Cl | 3 | 4.13
Nc1ccc2c(c1)oc1ccccc12 | – | > 100
N[C@@H](CCl)C(=O)O | 39.4 | 58.9
Cc1ccc(NC(=O)c2sccc2-n2cccc2)c(C)c1 | 28.2 | 82.9
Clc1cccc(-c2cc3nc4c(c(NCc5ccco5)n3n2)CCCC4)c1 | 11 | 17.4
COc1ccc(Cc2nnc(SCC(=O)N(c3ccccc3)C(C)C)n(N)c2=O)cc1 | 40.9 | 74.4
CC1(C)Cc2c(sc(NC(=O)c3ccc(C(=O)c4ccccc4)cc3)c2C(N)=O)C(C)(C)N1 | 22.5 | > 100
CCCSC1=C(C#N)C(c2ccc(Cl)cc2Cl)CC(=O)N1 (stereo unspecified) | – | > 25
Nc1nc2ccccc2n1CCOc1ccccc1Cl | 12.1 | 13.3
Cc1ccc(C)c(C2C(=O)c3ccccc3C2=O)c1 | 3.94 | 16.3
CC(NCCCOc1cccc2ccccc12)c1ccccc1 (stereo unspecified) | 22.6 | 31.3
COC(=O)c1c(NC(=S)NN2CCN(C)CC2)sc2c1CCC(C)C2 (stereo unspecified) | 23 | 25.9
O=C(CCC(=O)OCc1ccc(C(=O)Oc2ccc(Cl)cc2)cc1)Nc1ccccc1 | 16.4 | 44
CCc1ccc(-c2cc(C)no2)cc1S(=O)(=O)NCCCN1CCN(c2ccccc2)CC1 | 34.7 | 44.7
CC1(C)OC(=O)C(=Cc2ccc[nH]2)C(=O)O1 | < 0.2 | 24.1

SMILES | IC50 [µM] | IC90 [µM]
COC(=O)c1ccc2c(c1O)C(=O)c1ccccc1C2=O | 65.4 | 77.9
CC1CCN(C(=S)NC(=O)c2cccs2)CC1 | 12.8 | 29
Cc1ccc(NC(=O)C2C3/C=C\CCCCC32)cc1C (stereo unspecified) | 2.87 | 3.29
COc1ccc(-c2c(-c3cc(OC)cc(OC)c3)n(C)c3ccc(-c4ccn[nH]4)cc23)cc1 | – | > 100
Cc1cccc(C(=O)NNC(=S)NC(=O)c2ccccc2)c1 | 0.59 | 2.82
O=C(CSc1ccccn1)Nc1nonc1[N+](=O)[O-] | 1.45 | 2.25
O=C(NC(=S)Nc1ccc(N2CCCCC2)c(Cl)c1)c1cccs1 | 20.2 | 27.1
CC(C)c1nc2scc(-c3ccc(Cl)cc3)c2c(=O)n1N | 81.8 | > 100
CN1CCN2c3ccccc3Cc3ccccc3C2C1 (stereo unspecified) | 42.8 | > 100
Clc1ccc(C(Cn2ccnc2)OCc2csc3c(Cl)cccc23)c(Cl)c1 (stereo unspecified) | 15.8 | 24.8
CN(CCO)c1cc(Sc2nc3ccccc3s2)c2nonc2c1[N+](=O)[O-] | 27 | > 100
CCOc1ccc(NCc2cccn2-c2nnc(N3CCC(C(=O)NCCCN4C(C)CCCC4C)CC3)s2)cc1 (stereo unspecified) | 71.9 | 90.9
O=C(CCl)Nc1sccc1C(=O)c1ccccc1 | < 0.2 | 1.22
Cc1cc(O)c2c(c1)C(=O)c1cc(O)cc(O)c1C2=O | 91.5 | > 100
CC(C)(C)C(=O)NC(=S)NNC(=O)c1sc2ccccc2c1Cl | 23.8 | > 100
CCOC(=O)C1CCN(C(=O)CSCc2nc(-c3ccc(OCC)cc3)oc2C)CC1 | 42.9 | 48.1
NNc1nc2ccc(Cl)cc2s1 | 42.5 | 46.6
CCCCNC(=S)N/N=C/c1cccc(OCC)c1O | 6.01 | 6.79
CC(C)(C)c1csc(NC(=O)c2c(F)c(F)c(F)c(F)c2F)n1 | 17.7 | 25.2
CCOC(=O)c1cc(C)nc(Sc2ccc(C)cc2)c1C#N | 4.4 | 11.3
O=C(CSc1ccc(Cl)cc1)N1CCC(c2nc3ccccc3s2)CC1 | 85.9 | 92.9
